Test results taken from the NIST ThermoML archive (doi:10.1016/j.jct.2016.11.002).
± gives the expanded uncertainty stated by the source.

Assays:
[1] = xn = mol fraction of the nth substance listed; conditions: 100 kPa, Liquid; for mass density: Vibrating tube method; for speed of sound: Frequency=3 MHz, Single path-length method
[2] = refractive index (Na D-line) (dimensionless); xn = mol fraction of the nth substance listed; conditions: 100 kPa, Liquid, Standard Abbe refractometry

CCCOCCO [2-propoxyethanol] + CCOC(=O)OCC
Conditions | mass density, 318.15 K [kg/m3] | mass density, 323.15 K [kg/m3] | refractive index, 298.15 K | refractive index, 303.15 K | refractive index, 308.15 K | refractive index, 313.15 K | refractive index, 318.15 K | refractive index, 323.15 K | speed of sound, 323.15 K [m/s]
[1], x2 = 0 | 889.45 ± 1 | 885 ± 1 | – | – | – | – | – | – | 1215 ± 1.3
[1], x2 = 0.0881 | 894.03 ± 1 | 889.44 ± 1 | – | – | – | – | – | – | 1201.9 ± 1.3
[1], x2 = 0.1907 | 899.58 ± 1 | 894.82 ± 1 | – | – | – | – | – | – | 1186.8 ± 1.3
[1], x2 = 0.2866 | 904.8 ± 1 | 899.91 ± 1 | – | – | – | – | – | – | 1172.5 ± 1.3
[1], x2 = 0.3906 | 910.54 ± 1 | 905.53 ± 1 | – | – | – | – | – | – | 1156.9 ± 1.4
[1], x2 = 0.484 | 915.74 ± 1 | 910.62 ± 1 | – | – | – | – | – | – | 1143.2 ± 1.4
[1], x2 = 0.5955 | 922.05 ± 1 | 916.75 ± 1 | – | – | – | – | – | – | 1127.3 ± 1.4
[1], x2 = 0.6907 | 927.53 ± 1 | 922.11 ± 1 | – | – | – | – | – | – | 1114.5 ± 1.4
[1], x2 = 0.7908 | 933.4 ± 1 | 927.83 ± 1 | – | – | – | – | – | – | 1101.7 ± 1.4
[1], x2 = 0.8939 | 939.63 ± 1 | 933.96 ± 1 | – | – | – | – | – | – | 1089 ± 1.4
[2], x2 = 0 | – | – | 1.4103 ± 0.0016 | 1.4081 ± 0.0016 | 1.4058 ± 0.0016 | 1.4034 ± 0.0016 | 1.4011 ± 0.0016 | 1.3988 ± 0.0016 | –
[2], x2 = 0.0881 | – | – | 1.4089 ± 0.0016 | 1.4068 ± 0.0016 | 1.4046 ± 0.0016 | 1.4024 ± 0.0016 | 1.4003 ± 0.0016 | 1.3982 ± 0.0016 | –
[2], x2 = 0.1907 | – | – | 1.4074 ± 0.0016 | 1.4054 ± 0.0016 | 1.4034 ± 0.0016 | 1.4014 ± 0.0016 | 1.3995 ± 0.0016 | 1.3975 ± 0.0016 | –
[2], x2 = 0.2866 | – | – | 1.4062 ± 0.0016 | 1.4042 ± 0.0016 | 1.4023 ± 0.0016 | 1.4004 ± 0.0016 | 1.3985 ± 0.0016 | 1.3966 ± 0.0016 | –
[2], x2 = 0.3906 | – | – | 1.4046 ± 0.0016 | 1.4026 ± 0.0016 | 1.4006 ± 0.0016 | 1.3987 ± 0.0016 | 1.3967 ± 0.0016 | 1.3947 ± 0.0016 | –
[2], x2 = 0.484 | – | – | 1.4023 ± 0.0016 | 1.4004 ± 0.0016 | 1.3984 ± 0.0016 | 1.3964 ± 0.0016 | 1.3944 ± 0.0016 | 1.3924 ± 0.0016 | –
[2], x2 = 0.5955 | – | – | 1.3988 ± 0.0016 | 1.3968 ± 0.0016 | 1.3948 ± 0.0016 | 1.3928 ± 0.0016 | 1.3908 ± 0.0016 | 1.3888 ± 0.0016 | –
[2], x2 = 0.6907 | – | – | 1.3953 ± 0.0016 | 1.3933 ± 0.0016 | 1.3912 ± 0.0016 | 1.3892 ± 0.0016 | 1.3872 ± 0.0016 | 1.3852 ± 0.0016 | –
[2], x2 = 0.7908 | – | – | 1.3914 ± 0.0016 | 1.3894 ± 0.0016 | 1.3873 ± 0.0016 | 1.3851 ± 0.0016 | 1.3831 ± 0.0016 | 1.3809 ± 0.0016 | –
[2], x2 = 0.8939 | – | – | 1.3871 ± 0.0016 | 1.385 ± 0.0016 | 1.3828 ± 0.0016 | 1.3805 ± 0.0016 | 1.3782 ± 0.0016 | 1.376 ± 0.0016 | –
